Experiments:
[1] = test system: Streptococcus mutans (ATCC 25175); assay: Disc agar diffusion test; format: cell-based; details: 6 mm paper disc, 37, 24 hours, mean±S.D. (n=3)
Procedure: (§1) Lactobacillus salivarius SG-M6 were cultured in liquid medium. MRS medium was used in this embodiment. The bacteria were cultured at 30-37 for 15-24 hours. The fermentation broth was concentrated into 30-fold of original concentration, dialyzed by Spectra/Por®Dialysis Membrane (MWCO:3500, Spectrum Laboratories Inc, CA) for 48 hours, and diluted into various concentrations according to experimental requirements. […] Above four pathogens strains were purchased from Bioresource Collection and Research Center of Food Industry Research and Development Institute in Taiwan or ATCC. […] The diameter of sterile paper disc was 6 mm. The positive bacterial inhibition effect was determined by bacterial inhibition zone over 6 mm in diameter. Otherwise, it was defined as negative bacterial inhibition effect. Cultural condition was under the temperature of 37 for 24 hours. […] The inhibition zone values were shown as mean±S.D. (n=3).

[2] = test system: Streptococcus sanguis (ATCC 49295); assay: Disc agar diffusion test; format: cell-based; details: 6 mm paper disc, 37, 24 hours, mean±S.D. (n=3)
Procedure: as §1

[3] = test system: Porphyromonas gingivalis (ATCC 33277); assay: Disc agar diffusion test; format: cell-based; details: 6 mm paper disc, 37, 24 hours, mean±S.D. (n=3)
Procedure: as §1

[4] = test system: Actinomyces viscosus (ATCC 15987); assay: Disc agar diffusion test; format: cell-based; details: 6 mm paper disc, 37, 24 hours, mean±S.D. (n=3)
Procedure: as §1

[5] = test system: artificially induced periodontal disease (ligature wire, Streptococcus mutans); assay: Evaluation of preventive effect for animal periodontal disease; format: in vivo, Balb/c mice; details: prevention groups; for periodontal pocket improvement percentage (percentage of improving individual): Mann-Whitney test vs pMT
Procedure: (§2) This trial included treatment groups and control groups. The treatment groups of Lactobacillus salivarius SG-M6 were divided into 6 groups as follows: 6 groups of dialyzed fermentation product concentrate of Lactobacillus salivarius SG-M6 included 15-fold, 10-fold, 5-fold, 4-fold, 2-fold, and 1-fold (unconcentrated fermentation broth). Two control groups included the treatment of 0.267 mg/mL of tetracycline and distilled water.
Twelve of 8-week-old female Balb/c mice were selected for each group (Table 2). The mice were administered with various concentrations of Lactobacillus salivarius SG-M6 fermentation product, 1 mL of 0.267 mg/mL tetracyccline or distilled water. […] Their pathological symptoms observed and recorded until sacrificing all animals. Until the control group (feeding with distilled water, mock-treated group) showing gum swelling and dental plaque appearance diagnosed by chief dentists, the ligature wire was removed and inoculation of dental pathogen was stopped. At day 4, 8, 12, and 16 after wire removal, mice periodontal pocket depth was examined, 3 mice from each group were killed for blood sampling, and samples were collected for histological analysis.
(§3) Control group was used as a standard to examine individuals in each group by Mann-Whitney test. Subjects with significant difference were defined as improving individuals. (number of improving Subject/number of total subject in group)×100%=improvement percentage of periodontal pocket depth.
(§4) Experimental data were shown as mean±S.D. The statistical variation of treatment group and control group of mice periodontal pocket were performed by One-Way ANOVA and Dunnett multiple post hoc comparison in longitudinal study, and by One-Way ANOVA and LSD multiple post hoc comparison in cross-sectional study. Besides, Mann-Whitney test was used for examining the number of periodontal pocket improving individuals. The p value of statistical significance level was 0.05.

[6] = test system: artificially induced periodontal disease (ligature wire, Streptococcus mutans); assay: Evaluation of therapeutic effect for animal periodontal disease; format: in vivo, Balb/c mice; details: treatment groups; for periodontal pocket improvement percentage (percentage of improving individual): Mann-Whitney test vs tMT
Procedure: as §2
Twelve of 8-week-old female Balb/c mice were selected for each group (Table 3). […] After diagnosis of diseased tissue by chief dentists, they were administered with different concentrations of Lactobacillus salivarius SG-M6 fermentation product, live Lactobacillus salivarius SG-M6, 1 mL of 0.267 mg/mL tetracycline or distilled water every day. The pathological symptoms were recorded. Wire was removed at the beginning of the treatment and periodontal pathogen inoculation was terminated. At day 4, 8, 12, and 16 after wire removal, mice periodontal pocket depth was examined. 3 mice from each group were killed for blood sampling and samples were collected for histological analysis.
as §3, §4

CN(C)[C@@H]1C(O)=C(C(N)=O)C(=O)[C@@]2(O)C(O)=C3C(=O)c4c(O)cccc4[C@@](C)(O)[C@H]3C[C@@H]12 [Tetracycline, tetracycline]
inhibition zone [1]: 29.7 ± 2.0^ mm | inhibition zone [2]: 25.9 ± 1.2^ mm | inhibition zone [3]: 33.4 ± 2.2^ mm | inhibition zone [4]: 48.2 ± 2.4^ mm | periodontal pocket improvement percentage (percentage of improving individual) ([5]; Day 4): 62% | periodontal pocket depth ([5]; Day 4, Table 11, comparison with day 4): 0.84 ± 0.50 mm | periodontal pocket depth ([5]; Day 4 after wire removal, compared with pMT): 0.84 ± 0.50 mm | periodontal pocket improvement percentage (percentage of improving individual) ([5]; Day 8): 50% | periodontal pocket depth ([5]; Day 8, Table 11, comparison with day 4): 0.70 ± 0.34 mm | periodontal pocket depth ([5]; Day 8, compared with pMT): 0.70 ± 0.34 mm | periodontal pocket improvement percentage (percentage of improving individual) ([5]; Day 12): 71% | periodontal pocket depth ([5]; Day 12, Table 11, comparison with day 4): 0.65 ± 0.26 mm | periodontal pocket depth ([5]; Day 12, compared with pMT): 0.56 ± 0.26 mm | periodontal pocket improvement percentage (percentage of improving individual) ([5]; Day 16): 100% | periodontal pocket depth ([5]; Day 16, Table 11, comparison with day 4): 0.49 ± 0.25 mm | periodontal pocket depth ([5]; Day 16, compared with pMT): 0.49 ± 0.25 mm | periodontal pocket improvement percentage (percentage of improving individual) ([6]; Day 4): 30% | periodontal pocket depth ([6]; Day 4, Table 13, comparison with day 4): 1.05 ± 0.64 mm | periodontal pocket depth ([6]; Day 4, compared with tMT): 1.05 ± 0.64 mm | periodontal pocket improvement percentage (percentage of improving individual) ([6]; Day 8): 20% | periodontal pocket depth ([6]; Day 8, Table 13, comparison with day 4): 0.89 ± 0.44 mm | periodontal pocket depth ([6]; Day 8, compared with tMT): 0.89 ± 0.44 mm | periodontal pocket improvement percentage (percentage of improving individual) ([6]; Day 12): 47% | periodontal pocket depth ([6]; Day 12, Table 13, comparison with day 4): 0.63 ± 0.37 mm | periodontal pocket depth ([6]; Day 12, compared with tMT): 0.63 ± 0.37 mm | periodontal pocket improvement percentage (percentage of improving individual) ([6]; Day 16): 33% | periodontal pocket depth ([6]; Day 16, Table 13, comparison with day 4): 0.61 ± 0.34 mm | periodontal pocket depth ([6]; Day 16, compared with tMT): 0.48 ± 0.33 mm

Reference: US20110318281A1, “Lactobacillus Salivarius SG-M6 for Improving Oral Bacterial Groups and Health Care Compositions Thereof” (SYNGEN BIOTECH CO., LTD., priority 2010, published 2011)
